Experimental data reported in US3969521A, “Pharmaceutical compositions containing tetrahydroalstonine and method for treating circulation disorders” (Science Union et Cie, Societe Francaise de Recherche Medical, priority 1974, dated 1976).
Entries after “also recorded” stand apart in the source; their conditions may differ.

What was measured:
[1] = tested on: sleep after injection of Nembutal; test: Time of inducing the sleep after injection of Nembutal; assay type: in vivo; details: even at low dosages
arterial blood pressure = details: dog, in vivo, 100 mg/kg
Protocol: This test has been carried out on lots of five dogs weighing from 16 to 20 kg. The dogs have been previously anaesthetized with chloralose by intravenous way and the intravenous injection of 50 mg heparine for each dog is renewed every 150 minutes.
The average arterial blood pressure is determined by dissection of a brachial artery and insertion of a catheter connected with a Statham P23 Db transducer.
The various parameters have been recorded by means on a polygraph and the hemodynamic survey has been afforded with two tracks-cathodic tubes.

femoral blood flow = test: Femoral blood flow, anaesthetized dogs; assay type: in vivo, dog; details: 100 mg/kg perorally
Protocol: Femoral blood flow was measured with an electromagnetic flowmeter (Statham).

blood-sugar levels = details: rat, thesis (Kocialski); cited from earlier work
in vivo = details: mouse, po
Protocol: (§1) The search of an acute toxicity has been carried out on lots of mice (Rockland strain) weighing from […]. The mice received orally increasing dosis of tetrahydroalstonine suspended in an aqueous solvent.
(§2) The animals are kept under survey for 7 days and the deaths are recorded. The average lethal dosis has been graphically calculated according to the method of Wilcoxon and Litchfield. A lot of mice received only the solvent as controls.

mice (Rockland strain) = test: Acute toxicity, oral; details: mouse, in vivo
Protocol: as §1, §2

[2] = French Pat. 1.397.537; cited from earlier work
[3] = tested on: analgetic effect of Morphine; test: Analgetic effect of Morphine; details: in vivo
central nervous system = test: Effects on the central nervous system; assay type: in vivo
[4] = tested on: recovery of learned memories; test: Recovery of learned memories after electroshock (aquatic maze crossing); assay type: in vivo, rat
Description: Effects of tetrahydroalstonine on the recovery of learned memories on rats.
Tetrahydroalstonine has been tested on lots of rats in order to determine how fast it allows the recovery of learned memories after supramaximal electroshock in comparision with Vincamine and Papaverine. These last compounds are known to be active on the circulation namely as vasodilating agents.
In this test, as described by C. Giurgea (J. Pharmacol. (Paris) 3 17 (1972)), the rats are submitted to a submaximal electroshock which causes a spatio-temporal desorientation. This syndrom is evidenced by the difficulties the tested animals encountered for crossing over a maze filled with cold water without any error, after they have been submitted to the electroshock. The rats have been previously trained to swimm through this maze and the training has been renewed four times for 2 days.
The electric shock was delivered by means of a Neurovar apparatus (ALVAR Electronics) the third day. 20 Minutes after the electro shock, each lot of rats is tested and the time for crossing over the maze is determined. Immediately after, the rats received the compound to be tested by intra oesophageal tubing. Each lot is then experienced four times, 1, 2, 3, and 4 hours after the electroshock.
The score of performances of each individual is recorded and every error during the crossing over noticed.
The compounds to be tested (papaverine, vincamine and tetrahydroalstonine) are given to the animals, suspended in an aqueous solution of carboxymethylcellulose and sorbitan monooleate.
Papaverine and vincamine were administered at dosis ranging from 1 to 20 mg/kg. Tetrahydroalstonine was administered at a dosis of 0.6 mg/kg, 6 mg/kg and 60 mg/kg.
A lot of rats received only the aqueous solvent under the same volume (0.5 ml/100 g animal) as controls.
Therein are reported for each lot of rats the number of errors and the average time for crossing over the maze during the 5 tests performed after the animals have been subjected to the electroshock.
The treatment has been given 20 mn after the electroshock, immediately
after the first crossing over

[5] = 0,6 mg/kg P.O., 20 minutes after electroshock (before treatment)
[6] = 6 mg/kg P.O., 20 minutes after electroshock (before treatment)
[7] = 60 mg/kg P.O., 20 minutes after electroshock (before treatment)

COC(=O)C1=CO[C@@H](C)[C@@H]2CN3CCc4c([nH]c5ccccc45)[C@@H]3C[C@H]12 [Tetrahydroalstonine]
time of inducing the sleep after injection of Nembutal [1]: increase | noticeable decrease of the blood arterial pressure (incidence) (arterial blood pressure): one case out of five | vasodilatory effect on the femoral blood flow (femoral blood flow): clear | Femoral vein flow (femoral blood flow; 45 minutes (Table I)): 38,0 | Femoral vein flow (femoral blood flow; 67 minutes (Table I)): 38,7 | Femoral vein flow (femoral blood flow; 90 minutes (Table I)): 37,1 | Femoral vein flow (femoral blood flow; 112 minutes (Table I)): 34,5 | Femoral vein flow (femoral blood flow; 135 minutes (Table I)): 27,7 | effect on blood-sugar levels (blood-sugar levels): negative | LD50 at 168 h (in vivo): > 3000 mg/kg | toxicity (mice (Rockland strain)): practically devoid of toxic effect | adrenolytic activity [2]: adrenolytic agent | effect on the analgetic effect of Morphine [3]: increases the analgetic effect of Morphine | effect on the central nervous system (central nervous system; dosage not stated): diphasic | effect on the central nervous system (central nervous system; higher dosages (20 to 40 mg/kg per os)): sedative effect | effect on the central nervous system (central nervous system; higher dosages (dose not stated)): sedative effects | effect on the central nervous system (central nervous system; low dosages): stimulating properties; also recorded: slight stimulating action | a = variation of average number of errors as regard as the controls ([4]; 0,6 mg/kg P.O., 20 minutes (before treatment)): - | E = average number of errors [4, 5]: 12,3 | T = average time for crossing over [4, 5]: 124,2 seconds | E = average number of errors ([4]; 0,6 mg/kg P.O., 60 minutes): 8,4 | T = average time for crossing over ([4]; 0,6 mg/kg P.O., 60 minutes): 85,2 seconds | a = variation of average number of errors as regard as the controls ([4]; 0,6 mg/kg P.O., 60 minutes): - | E = average number of errors ([4]; 0,6 mg/kg P.O., 120 minutes): 6,2 | T = average time for crossing over ([4]; 0,6 mg/kg P.O., 120 minutes): 66,4 seconds | a = variation of average number of errors as regard as the controls ([4]; 0,6 mg/kg P.O., 120 minutes): - | E = average number of errors ([4]; 0,6 mg/kg P.O., 180 minutes): 3,1 | T = average time for crossing over ([4]; 0,6 mg/kg P.O., 180 minutes): 37,9 seconds | a = variation of average number of errors as regard as the controls ([4]; 0,6 mg/kg P.O., 180 minutes): - | b = statistical value (student's test), number of errors ([4]; 0,6 mg/kg P.O., 180 minutes): 0,01 | E = average number of errors ([4]; 0,6 mg/kg P.O., 240 minutes): 2,0 | T = average time for crossing over ([4]; 0,6 mg/kg P.O., 240 minutes): 29,4 seconds | a = variation of average number of errors as regard as the controls ([4]; 0,6 mg/kg P.O., 240 minutes): - | b = statistical value (student's test), number of errors ([4]; 0,6 mg/kg P.O., 240 minutes): 0,0005 | potency compared with papaverine or vincamine ([4]; 0.6 mg/kg): competes with that of 20 mg/kg of papaverine or vincamine | time after which the statistically significant decrease of the number of mistakes appeared ([4]; 0.6 mg/kg): 180 mn | start of the improving effect ([4]; 6 mg/kg): 60 mn | time after which the statistically significant decrease of the number of mistakes appeared ([4]; 6 mg/kg): 120 mn | a = variation of average number of errors as regard as the controls ([4]; 6 mg/kg P.O., 20 minutes (before treatment)): - | E = average number of errors [4, 6]: 12,3 | T = average time for crossing over [4, 6]: 133,5 seconds | E = average number of errors ([4]; 6 mg/kg P.O., 60 minutes): 6,9 | T = average time for crossing over ([4]; 6 mg/kg P.O., 60 minutes): 75,1 seconds | a = variation of average number of errors as regard as the controls ([4]; 6 mg/kg P.O., 60 minutes): - | E = average number of errors ([4]; 6 mg/kg P.O., 120 minutes): 4,4 | T = average time for crossing over ([4]; 6 mg/kg P.O., 120 minutes): 52,5 seconds | a = variation of average number of errors as regard as the controls ([4]; 6 mg/kg P.O., 120 minutes): - | b = statistical value (student's test), number of errors ([4]; 6 mg/kg P.O., 120 minutes): 0,05 | E = average number of errors ([4]; 6 mg/kg P.O., 180 minutes): 3,6 | T = average time for crossing over ([4]; 6 mg/kg P.O., 180 minutes): 54,6 seconds | a = variation of average number of errors as regard as the controls ([4]; 6 mg/kg P.O., 180 minutes): - | b = statistical value (student's test), number of errors ([4]; 6 mg/kg P.O., 180 minutes): 0,05 | E = average number of errors ([4]; 6 mg/kg P.O., 240 minutes): 2,5 | T = average time for crossing over ([4]; 6 mg/kg P.O., 240 minutes): 23,8 seconds | a = variation of average number of errors as regard as the controls ([4]; 6 mg/kg P.O., 240 minutes): - | b = statistical value (student's test), number of errors ([4]; 6 mg/kg P.O., 240 minutes): 0,005 | time after which the statistically significant decrease of the number of mistakes appeared ([4]; 60 mg/kg): 60 mn | a = variation of average number of errors as regard as the controls ([4]; 60 mg/kg P.O., 20 minutes (before treatment)): - | E = average number of errors [4, 7]: 10,6 | T = average time for crossing over [4, 7]: 135,0 seconds | E = average number of errors ([4]; 60 mg/kg P.O., 60 minutes): 5,8 | T = average time for crossing over ([4]; 60 mg/kg P.O., 60 minutes): 62,2 seconds | a = variation of average number of errors as regard as the controls ([4]; 60 mg/kg P.O., 60 minutes): - | b = statistical value (student's test), number of errors ([4]; 60 mg/kg P.O., 60 minutes): 0,025 | E = average number of errors ([4]; 60 mg/kg P.O., 120 minutes): 2,7 | T = average time for crossing over ([4]; 60 mg/kg P.O., 120 minutes): 28,8 seconds | a = variation of average number of errors as regard as the controls ([4]; 60 mg/kg P.O., 120 minutes): - | b = statistical value (student's test), number of errors ([4]; 60 mg/kg P.O., 120 minutes): 0,005 | E = average number of errors ([4]; 60 mg/kg P.O., 180 minutes): 1,6 | T = average time for crossing over ([4]; 60 mg/kg P.O., 180 minutes): 18,8 seconds | a = variation of average number of errors as regard as the controls ([4]; 60 mg/kg P.O., 180 minutes): - | b = statistical value (student's test), number of errors ([4]; 60 mg/kg P.O., 180 minutes): 0,0005 | E = average number of errors ([4]; 60 mg/kg P.O., 240 minutes): 1,8 | T = average time for crossing over ([4]; 60 mg/kg P.O., 240 minutes): 20,1 seconds | a = variation of average number of errors as regard as the controls ([4]; 60 mg/kg P.O., 240 minutes): - | b = statistical value (student's test), number of errors ([4]; 60 mg/kg P.O., 240 minutes): 0,0005 | dose dependence of the effect on number of mistakes ([4]; 0.6, 6 and 60 mg/kg): closely related to the used dosis | time after the convulsive shock at which recovery of the memory is complete ([4]; highest tested dosage (60 mg/kg)): 120 mn | activity relative to papaverine and vincamine ([4]; rat, in vivo): more active | effect on the recovery of learned memory ([4]; rat, in vivo): improving effect
